Measurements from ChEMBL document CHEMBL5532656, “Novel ligustilide derivatives target quorum sensing system LasR/LasB and relieve inflammatory response against Pseudomonas aeruginosa infection” (Eur J Med Chem, 2024).
Activity calls are given as the source filed them. No cut-off for these calls is given here.

Legend:
[1] = Inhibition of quorum sensing system in Pseudomonas aeruginosa PAO1 assessed as reduction in elastase level using BODIPY-FL-labeled DQ elastin conjugate as substrate measured after 24 hrs by fluorometric method
Pseudomonas aeruginosa [2] = assay: Anti-biofilm activity against Pseudomonas aeruginosa PAO1 assessed as reduction in biofilm formation incubated for 24 hrs by crystal violet staning based analysis; type: functional, organism-based
Pseudomonas aeruginosa [3] = assay: Anti-biofilm activity against Pseudomonas aeruginosa PAO1 assessed as suppression of biofilm formation at 1.25 to 10 uM incubated for 24 hrs by PI staining based confocal fluorescence microscopy based analysis; type: functional, organism-based; conditions: dose 1.25-10 µM
Erythrocyte [4] = assay: Hemolytic activity in human erythrocytes assessed as hemolysis at 0.625 to 10 micromol/L measured after 4 hrs by microplate reader method; type: toxicity, cell-based; conditions: dose 0.625-10 µmol/L
Erythrocyte [5] = assay: Hemolytic activity in mouse erythrocytes assessed as hemolysis at 0.625 to 10 micromol/L measured after 4 hrs by microplate reader method; type: toxicity, cell-based; conditions: dose 0.625-10 µmol/L
Danio rerio = species: Danio rerio; assay: Inhibition of macrophage migration in 4 days post fertilized Zebra fish AB embryo assessed as reduction in green fluorescence at 10 micromol/L measured after 4 to 6 hrs by fluorescence microscope based analysis; type: functional, organism-based; conditions: dose 10.0 µmol/L, time […]
RAW264.7 [6] = assay: Antiinflammatory activity in mouse RAW264.7 cells assessed as reduction in COX-2 mRNA expression at 2.5 to 10 uM by RT-PCR analysis; type: functional, cell-based; conditions: dose 2.5-10 µM
RAW264.7 [7] = assay: Antiinflammatory activity in mouse RAW264.7 cells assessed as reduction in TNF alpha mRNA expression at 2.5 to 10 uM by RT-PCR analysis; type: functional, cell-based; conditions: dose 2.5-10 µM
RAW264.7 [8] = assay: Inhibition of ERK signaling in mouse RAW264.7 cells assessed as reduction in LPS induced ERK phosphorylation by Western blot analysis; type: cell-based
Mus musculus [9] = assay: Anti-inflammatory activity against LPS-induced acute lung injury mouse model assessed as reduction in TNF-alpha mRNA expression at 1 to 2 mg/kg, po preincubated for 4 hrs followed by LPS stimulation and measured after 6 hrs; type: functional, organism-based; conditions: dose 1-2 mg/kg, time 10.0 hrs
Mus musculus [10] = assay: Protection against LPS-induced acute lung injury mouse model assessed as inhibition of edema at 1 to 2 mg/kg, po preincubated for 4 hrs followed by LPS stimulation and measured after 6 hrs by H and E staining based analysis; type: functional, organism-based; conditions: dose 1-2 mg/kg, time 10.0 hrs
[11] = Toxicity in BALB/c mouse assessed as adverse effect at 2 to 4 mg/kg, IG; type: organism-based; conditions: in vivo, po, dose 2-4 mg/kg
[12] = Toxicity in BALB/c mouse assessed as effect on heart at 2 to 4 mg/kg, PO measured after 7 days by H and E staining based analysis; type: organism-based; conditions: in vivo, 168 h, dose 2-4 mg/kg, time 7 day
[13] = Toxicity in BALB/c mouse assessed as effect on kidney at 2 to 4 mg/kg, PO measured after 7 days by H and E staining based analysis; type: organism-based; conditions: in vivo, 168 h, dose 2-4 mg/kg, time 7 day

In the case of `CCCCC1(O)C2=C(C=CCC2)C(=O)N1Cc1ccc(C(F)(F)F)cc1` (stereo unspecified), the IC50 [1] is reported as 7.3 µM, the inhibition ([1]; dose 0.625-10 µM) is reported as “Dose-Dependent Effect” and the IC50 (Pseudomonas aeruginosa [2]; PAO1, 24 h) is reported as 7.4 µM. The Activity (Pseudomonas aeruginosa [2]; dose 0.625-10 µM) was “Dose-Dependent Effect”, the Activity (Pseudomonas aeruginosa [3]) was “Dose-Dependent Effect” and the Activity (Erythrocyte [4]) was “Toxic”. For the same compound, the Activity (Erythrocyte [5]) was “Toxic”, the inhibition (Danio rerio) was “Active” and the Activity (RAW264.7 [6]) was “Active”. The Activity (RAW264.7 [7]) was “Active”, the inhibition (RAW264.7 [8]) was “Active” and the Activity (Mus musculus [9]) was “Active”. For the same compound, the Activity (Mus musculus [10]) was “Active”, the Activity [11] was “Non-Toxic” and the Activity [12] was “Non-Toxic”. The Activity [13] was “Non-Toxic”.
